Patent publication US20220378721A1, “PROTEIN KINASE INHIBITORS AND USE THEREOF FOR TREATMENT OF NEURODEGENERATIVE DISEASES” (Xavier University of Louisiana, priority 2019, published 2022)
Where two headings read alike, the source gives them in different places.

Tests used:
CSNK1D (CK1δ) = CSNK1D (CK1δ) (Homo sapiens, UniProt P48730); assay: 100 kinase panel assay; format: biochemical
Source text: (§1) Compound 2 (from FIG. 1) was screened against a panel of 100 kinases to understand the specificity.

PIM1 = PIM1 (Homo sapiens, UniProt P11309); assay: 100 kinase panel assay; format: biochemical
Source text: as §1

PIM3 = PIM3 (Homo sapiens, UniProt Q86V86); assay: 100 kinase panel assay; format: biochemical
Source text: as §1

[1] = system: tau phosphorylation at Ser202 in HeLa cells; assay: Inhibition of tau phosphorylation at serine 202 in HeLa cells expressing full-length Tau; format: cell-based; conditions: HeLa cells transfected with full length tau, 10 μM compound; for inhibition of tau phosphorylation of Ser202: pTau/total Tau
Method: FIG. 3A and FIG. 3B show inhibition of Tau phosphorylation by CK1δ inhibitors in HeLa cells. HeLa cervical cancer cells ectopically expressing full-length Tau protein were treated with 10 μM of the indicated compounds. Samples were prepared in triplicate. […] Actin was used as a loading control only and was not used in any later calculations. […] The Y axis reflects the average change in pTau levels divided by total Tau levels for the triplicate experiments for each compound. For normalization purposes, the vehicle control was set to 1.0 and all other values were adjusted accordingly.
For a CK1δ inhibitor to be considered a potential therapeutic for AD, the compound should be able to inhibit the phosphorylation of tau at the specific residues that are known to be phosphorylated by CK1δ. It has been shown that tau phosphorylation at Ser202/Ser205 and Ser396/Ser404 by CK1δ is not dependent on the priming by other protein kinases. Additionally, these phosphorylation sites are among those sites (Ser199, Ser 202, Ser231, Thr205, Ser396 and Ser404) that regulate the microtubule stabilizing function. Based on these evidences, Ser202 was chosen as the representative tan phosphorylation site of this study to understand the efficacy of our CK1δ inhibitors in inhibiting tau phosphorylation.
Inhibition of Tau Phosphorylation. To confirm biological relevance, the compounds identified by the FRET screens as potential CK1δ inhibitors were tested in an in vitro assay for their ability to inhibit the phosphorylation of tau at serine 202, a known target of CK1δ. LH 846, a known inhibitor of CK1δ was used as the positive control. […] In in-vitro tau phosphorylation assay in HeLa cells that were transfected with full length tau, the CK1δ inhibitors indeed lowered the tau phosphorylation levels at Ser202 by 20%-56%. Compounds 8 and 9 inhibited tau phosphorylation of Ser202 by 56% and 55%, respectively when added to HeLa cells that were transfected with and therefore overexpressed tan protein (FIG. 3).

CK1δ = CK1δ (Homo sapiens, UniProt P48730); assay: Casein kinase 1δ inhibition assay, Z'-LYTE FRET based (ThermoFisher SelectScreen); format: biochemical; conditions: for % Inhibition CK1δ: 10 μM concentration, high-throughput screening
Method: Casein kinase 1δ Inhibition Assay: An initial high-throughput assay of the 28 commercially purchased compounds and 22 synthesized compounds were conducted at a 10 μM concentration at the ThermoFisher Select Screen facility. […] FIG. 1 sets forth their chemical structures.
These compounds were then subjected to dose response curve determination studies with the same FRET based assays at ThermoFisher Scientific. The IC50 values, defined as the concentration of the compound required to […] by 50%, of the some of the compounds from the screening were measured (Table 2).
(§2) The synthesized molecules from FIG. 5 were then analyzed for the inhibition of CK1δ and CK1ε, using in-vitro kinase inhibition assay. The in-vitro kinase inhibition assays were conducted at the ThermoPisher Select Screen Biochemical Kinase Profiling Service. It is a Z′-LYTE biochemical FRET based fluorescence assay with a coupled enzyme format that has differential sensitivity to phosphorylated and non-phosphorylated peptides upon proteolytic cleavage. An initial high-throughput in-vitro screening assay at a concentration of 10 μM for all of the compounds in FIG. 5.
(§3) Table 4 sets forth the IC50 values of inhibition of CK1δ and CK1ε by some of the compounds from FIG. 5.

CK1ε = CK1ε (Homo sapiens, UniProt P49674); assay: In-vitro kinase inhibition assay, Z'-LYTE FRET based (ThermoFisher SelectScreen); format: biochemical; conditions: for % Inhibition CK1ε: 10 μM concentration, high-throughput screening; for IC50: 10-point titration, 3-fold dilution from 25 μM (Table 4)
Method: as §2, §3

[2] = dose response, FRET based assay (Table 2), read-out: CK1δ (IC50 μM)
[3] = 10-point titration, 3-fold dilution from 25 μM (Table 4), read-out: IC50 values of inhibition of CK1δ
[4] = 10-point titration, 3-fold dilution from 25 μM (Table 4)

Sequence of CK1δ (P48730 whole entry): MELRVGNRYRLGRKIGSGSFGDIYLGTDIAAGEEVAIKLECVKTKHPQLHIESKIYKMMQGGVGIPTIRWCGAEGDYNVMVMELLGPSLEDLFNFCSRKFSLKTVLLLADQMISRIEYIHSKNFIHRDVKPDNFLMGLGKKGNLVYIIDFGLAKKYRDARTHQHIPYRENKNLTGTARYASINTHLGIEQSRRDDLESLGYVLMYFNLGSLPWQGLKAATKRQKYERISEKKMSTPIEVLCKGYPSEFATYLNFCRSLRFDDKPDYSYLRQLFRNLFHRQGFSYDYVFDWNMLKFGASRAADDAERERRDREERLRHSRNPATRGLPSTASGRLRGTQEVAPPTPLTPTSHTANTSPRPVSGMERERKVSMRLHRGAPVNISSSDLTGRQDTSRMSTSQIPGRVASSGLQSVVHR
Sequence of CK1ε (P49674 whole entry): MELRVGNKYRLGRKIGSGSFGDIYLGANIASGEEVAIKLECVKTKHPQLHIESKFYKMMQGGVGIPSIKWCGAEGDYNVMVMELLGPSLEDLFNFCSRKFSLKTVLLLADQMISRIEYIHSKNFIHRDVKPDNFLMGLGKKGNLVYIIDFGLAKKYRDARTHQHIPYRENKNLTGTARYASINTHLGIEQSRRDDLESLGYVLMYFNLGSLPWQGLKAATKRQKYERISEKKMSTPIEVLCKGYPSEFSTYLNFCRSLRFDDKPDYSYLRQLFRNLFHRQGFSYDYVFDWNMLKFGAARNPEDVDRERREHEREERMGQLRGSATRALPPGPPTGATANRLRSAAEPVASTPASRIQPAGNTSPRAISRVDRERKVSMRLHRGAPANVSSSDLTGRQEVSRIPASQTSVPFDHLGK
Sequence of PIM1 (P11309 whole entry): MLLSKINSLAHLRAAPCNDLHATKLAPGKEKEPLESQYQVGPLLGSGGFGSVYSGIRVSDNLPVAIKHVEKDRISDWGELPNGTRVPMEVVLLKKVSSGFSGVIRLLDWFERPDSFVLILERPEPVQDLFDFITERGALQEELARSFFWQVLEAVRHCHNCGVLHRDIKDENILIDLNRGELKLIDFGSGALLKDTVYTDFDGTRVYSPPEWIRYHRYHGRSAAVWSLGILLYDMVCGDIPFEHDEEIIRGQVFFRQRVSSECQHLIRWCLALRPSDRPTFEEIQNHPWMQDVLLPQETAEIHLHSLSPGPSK
Sequence of CSNK1D (CK1δ) (P48730 whole entry): as the sequence (P48730 whole entry) above

O=C1C2=C(C(=O)c3c(O)ccc(O)c31)C(O)C(O)C(O)C2 (stereo not drawn) [Compound 2]
% Inhibition at 10 μM, CSNK1D (CSNK1D (CK1δ)): 70% | % Inhibition at 10 μM, PIM1 (PIM1): 66% | % Inhibition at 10 μM, PIM3 (PIM3): 64% | inhibition of tau phosphorylation at Ser202 (in words) [1]: did not measure up to them

CC(=O)Oc1ccc(O)c2c1C(=O)C=CC2=O [Compound 3]
IC50 (CK1δ; [2]): 0.2 µM

COc1cc2cc3c(c(O)c2c(O)c1C=CC(C)C)C(=O)CC(C)(OC(C)=O)C3 (stereo not drawn) [Compound 4]
IC50 (CK1δ; [2]): 16.1 µM

COc1cccc2c1C(=O)c1c(O)ccc(O)c1C2=O [Compound 5]
IC50 (CK1δ; [2]): 0.2 µM | inhibition of tau phosphorylation at Ser202 (in words) [1]: comparable inhibition potency | inhibition of tau phosphorylation of Ser202 [1]: approximately 43%

O=C1c2ccccc2C(=O)c2c(NCCO)cccc21 [Compound 6]
IC50 (CK1δ; [2]): 21.2 µM

CNC(=O)c1ccc2c(c1N)C(=O)c1ccccc1C2=O [Compound 7]
IC50 (CK1δ; [2]): 19.4 µM

CC(C)(C)OC1CC(=O)CC2C(=O)c3cccc(O)c3C(=O)C12 (stereo not drawn) [Compound 8]
IC50 (CK1δ; [2]): 18.9 µM | inhibition of tau phosphorylation at Ser202 (in words) [1]: comparable inhibition potency | inhibition of tau phosphorylation of Ser202 [1]: 56%

CC(C)C(C)OC1CC(=O)CC2C(=O)c3c(O)ccc(O)c3C(=O)C12 (stereo not drawn) [Compound 9]
IC50 (CK1δ; [2]): 5.8 µM | inhibition of tau phosphorylation at Ser202 (in words) [1]: comparable inhibition potency | inhibition of tau phosphorylation of Ser202 [1]: 55%

CC(C)(C)OC1CC(O)CC2C(=O)c3c(O)ccc(O)c3C(=O)C12 (stereo not drawn) [Compound 10]
IC50 (CK1δ; [2]): 10.1 µM

O=C1C(CO)=C(CO)C(=O)c2c(O)ccc(O)c21 [Compound 11]
IC50 (CK1δ; [2]): 27.2 µM

O=C1C=C(CBr)C(=O)c2c(O)ccc(O)c21 [Compound 12]
% Inhibition CK1δ (CK1δ; 10 µM): 94% | IC50 (CK1δ; [3]): 0.72 µM | IC50 (CK1δ; [2]): 0.7 µM | % Inhibition CK1ε (CK1ε; 10 µM): 101% | inhibition of tau phosphorylation at Ser202 (in words) [1]: comparable inhibition potency

Cc1ccc(O)c2c1C(=O)C=CC2=O [Compound 13]
% Inhibition CK1δ (CK1δ; 10 µM): 85% | IC50 (CK1δ; [3]): 2.41 µM | IC50 (CK1δ; [2]): 31.2 µM | % Inhibition CK1ε (CK1ε; 10 µM): 98% | IC50 (CK1ε): 1.19 µM

O=Cc1cc(O)c2c(c1O)C(=O)C=CC2=O [Compound 14]
IC50 (CK1δ; [2]): 3.1 µM

Cc1cc(O)c2c(c1O)C(=O)C=CC2=O [Compound 15]
% Inhibition CK1δ (CK1δ): 31% | IC50 (CK1δ; [2]): 6.3 µM | % Inhibition CK1ε (CK1ε): 58%

CC(O)C1=CC(=O)c2c(O)ccc(O)c2C1=O (stereo not drawn) [Compound 16]
IC50 (CK1δ; [2]): 2.4 µM | inhibition of tau phosphorylation at Ser202 (in words) [1]: comparable inhibition potency

O=C1C=CC(=O)c2c(O)c(Cl)cc(O)c21 [Compound 18]
% Inhibition CK1δ (CK1δ): 13% | IC50 values of inhibition of CK1δ (CK1δ; [4]): could not be determined | IC50 (CK1δ; [3]): > 25 µM | % Inhibition CK1ε (CK1ε; 10 µM): 90% | IC50 (CK1ε): 1.34 µM

O=C1C(Cl)=C(Cl)C(=O)c2c(O)c(Cl)cc(O)c21 [Compound 19]
% Inhibition CK1δ (CK1δ): 42% | IC50 (CK1δ; [3]): 9.58 µM | % Inhibition CK1ε (CK1ε; 10 µM): 88% | selectivity for CK1ε over CK1δ (CK1ε; from % inhibition at 10 μM): 2 fold

O=C1C(Cl)=C(Cl)C(=O)c2c(O)ccc(O)c21 [Compound 20]
% Inhibition CK1δ (CK1δ): 21% | IC50 values of inhibition of CK1δ (CK1δ; [4]): could not be determined | IC50 (CK1δ; [3]): > 25 µM | % Inhibition CK1ε (CK1ε; 10 µM): 84% | IC50 (CK1ε): 7.52 µM

O=C1C(c2ccccc2)=C(c2ccccc2)C(=O)c2c(O)ccc(O)c21 [Compound 21]
% Inhibition CK1δ (CK1δ): 8% | % Inhibition CK1ε (CK1ε): 14%

CC1=C(C)C(=O)c2c(O)c(Cl)cc(O)c2C1=O [Compound 22]
% Inhibition CK1δ (CK1δ): 2% | % Inhibition CK1ε (CK1ε): 39%

O=C1C=C(c2ccccc2)C(=O)c2c(O)ccc(O)c21 [Compound 23]
% Inhibition CK1δ (CK1δ): 17% | % Inhibition CK1ε (CK1ε): 60%

O=C1C=C(Br)C(=O)c2c(O)ccc(O)c21 [Compound 24]
% Inhibition CK1δ (CK1δ): 1% | IC50 values of inhibition of CK1δ (CK1δ; [4]): could not be determined | IC50 (CK1δ; [3]): > 25 µM | % Inhibition CK1ε (CK1ε; 10 µM): 96% | IC50 (CK1ε): 2.1 µM

CC(C)Cc1cc(O)c2c(c1)C(=O)C=CC2=O [Compound 25]
% Inhibition CK1δ (CK1δ): 11% | % Inhibition CK1ε (CK1ε): 48%

CCc1cc(O)c2c(c1)C(=O)C=C(C1=CC(=O)c3cc(CC)cc(O)c3C1=O)C2=O [Compound 26]
% Inhibition CK1δ (CK1δ): 43% | % Inhibition CK1ε (CK1ε): 64%

CCCCCc1cc(O)c2c(c1)C(=O)C=C(C1=CC(=O)c3cc(CCCCC)cc(O)c3C1=O)C2=O [Compound 27]
% Inhibition CK1δ (CK1δ): 9% | % Inhibition CK1ε (CK1ε): 13%

CC(C)CCc1cc(O)c2c(c1)C(=O)C=C(C1=CC(=O)c3cc(CCC(C)C)cc(O)c3C1=O)C2=O [Compound 28]
% Inhibition CK1δ (CK1δ): 9% | % Inhibition CK1ε (CK1ε): 13%

CC(C)Cc1cc(O)c2c(c1)C(=O)C=C(C1=CC(=O)c3cc(CC(C)C)cc(O)c3C1=O)C2=O [Compound 29]
% Inhibition CK1δ (CK1δ): 8% | % Inhibition CK1ε (CK1ε): 15%

CCCCCCc1cc(O)c2c(c1)C(=O)C=C(C1=CC(=O)c3cc(CCCCCC)cc(O)c3C1=O)C2=O [Compound 30]
% Inhibition CK1δ (CK1δ): 6% | % Inhibition CK1ε (CK1ε): 12%
